Data as given in patent EP1488698A1, “Compositions for descreasing intracellular inositol trisphosphate concentration and uses thereof” (priority 1995, dated 1997).

What was measured:
[1] = test system: cultured neurons; assay: Lysosphingolipid content of cultured neurons by NBDZF fluorescence tagging; assay type: cell-based, chick; settings: following exposure to 50 µM lysosphingolipid for 1 hour
Source text: Agonist-binding to metabotropic receptors influences the levels of lysosphingolipid in neuronal membranes. However, there is no convenient methodology available for the measurement of lysosphingolipid content in cultured neurons. As a result, a sensitive method of fluorometric tracing has been devised and is described herein. The measurement of lysosphingolipid content in cultured neurons is based on the stable fluorescence-tagging procedure using 4-fluoro, 7-nitrobenzofuran (NBDZF) described by Nozowa et al J. Neutochem. 59:607-609, 1992). The procedure was applied to: resting neurons; neurons exposed to 100 µM metabotropic receptor agonist for 1 hour; resting neurons exogenously enriched in lysosphingolipids; and neurons exogenously enriched in lysosphingolipids and exposed to metabotropic receptor agonist for 1 hour. The neurons were scraped in batches of 10^7 (1 Petri dish, approximately 8 cm in diameter, is equivalent to 2 mg membrane protein) and subjected to anaylsis.
(§1) Total lipids were removed from the neuron samples by repeated extraction with chloroform:methanol (2:1, vol:vol). The lysosphingolipids were separated from total neuronal lipid in 90 ± 5 % recovery yield (n = 10) by the stepped chromatographic procedure of Van Veldhoven et al. (Anal. Biochem. 183:177-189, 1989). The recovered lysosphingolipids were stably tagged with NBDZF by the rapid procedure of Nozowa et al. (supra). The fluorescence tagged neuronal lysosphingolipids were separated in parallel with reference standards NBDZF-Sph, NBDZF-Psy, and NBDZF-Lsm on high performance silica gel thin layer chromatography plates with acetonitrile:H2O (10:0.5, vol:vol). The highly fluorescent, well separated bands were scraped from the plate. The fluorescence tagged lysosphingolipids are eluted from the scraped silica gel with methanol:1 N HCl (1:0.02, vol:vol). The fluorescence tagged lysosphingolipid eluates were quantitated against reference standards by fluorescence measurement in a Perkin-Elmer LS-5 Fluorescence Spectrometer.
(§2) Sphingolipid content of neurons exposed to sphingosine, lysocerebroside, and lysosphingomyelin was examined as follows. A Petri dish containing approximately 10^7 neurons was incubated with 5 µCi [^3H]myo-Ins in 3 ml DMEM overnight to prelabel the phosphoinositide InsP3 may contain. The neurons were washed with PBS and 3 ml of PBS containing 4.5 g/l glucose was added. Preparations of sphingosine, lysocerebroside, lysosphingomyelin (Sigma Chemical Co., St. Louis, MO) and combinations of each were prepared as the hydrochloride salt dissolved in PBS. The lysosphingolipids were added to the Petri dishes to produce a concentration ranging from 0 - 150 µM. The dishes were held at room temperature for 0.5, 1, or 2 hours, then washed with PBS and incubated with 5 Units of trypsin in glucose/PBS for 4 hours at 37°C. Trypsinization removes non-specifically bound lysosphingolipids that may adhere to extracellular plasma membrane protein domains. Non-specific adherence between cationic micelles of lysosphingolipids and the neuronal glycocalyx is avoided by performing the experiments with lysosphingolipid concentrations below the critical micelle concentration. Neurons were analyzed for lysosphingolipid content as described above.

[2] = test system: Intact neurons; assay: Lysosphingolipid loading of intact neurons (fluorescence tagging); assay type: in vitro ADME, chick; settings: 10 μmolar exposure
Source text: as §1
as §2, with “The dishes were held at room temperature for 0.5, 1, or 2 hours, then washed with PBS and incubated with 5 Units of trypsin in glucose/PBS for 4 hours at 37°C.” left out
The suspended plasma membrane preparation was apportioned into 250 µl samples, each providing approximately 100 µg membrane protein. Sphingosine, psychosine, and lysosphingomyelin were added to each plasma membrane sample. The samples were held at room temperature for 3 hours, centrifuged at 300,000 X g for 30 minutes, and the supernatant discarded. Samples were analyzed for lysosphingolipid loading (i.e., membrane lysosphingolipid content following exposure to exogenous sphingolipid) by fluorescence tagging. Table 2 provides the results of exposure of plasma membrane samples to 10 µM lysosphingolipids. Values are reported in pmoles lysosphingolipid/mg plasma membrane protein. Values obtained for isolated plasma membrane and intact neurons are compared.

Compound | content of sphingosine in the neurons [1] [pmoles/mg protein] | lysosphingolipid content, 0 hours of incubation [2] | lysosphingolipid content, 0.5 hours of incubation [2] | lysosphingolipid content, 1.0 hours of incubation [2] | lysosphingolipid content, 2.0 hours of incubation [2] | lysosphingolipid content, 3.0 hours of incubation [2]
CCCCCCCCCCCCC/C=C/[C@@H](O)[C@@H](N)COP(=O)([O-])OCC[N+](C)(C)C [lysosphingomyelin, sphingosyl phosphorylcholine] | 105 ± 0.15 | 5±1 pmoles lysosphingolipid/mg plasma membrane protein | 8±2 pmoles lysosphingolipid/mg plasma membrane protein | 20±5 pmoles lysosphingolipid/mg plasma membrane protein | 45±5 pmoles lysosphingolipid/mg plasma membrane protein | 55±15 pmoles lysosphingolipid/mg plasma membrane protein
CCCCCCCCCCCCC/C=C/[C@@H](O)[C@@H](N)CO[C@@H]1O[C@H](CO)[C@H](O)[C@H](O)[C@H]1O [psychosine] | 220 ± 45 | 25±5 pmoles lysosphingolipid/mg plasma membrane protein | 35±15 pmoles lysosphingolipid/mg plasma membrane protein | 45±10 pmoles lysosphingolipid/mg plasma membrane protein | 80±5 pmoles lysosphingolipid/mg plasma membrane protein | 80±5 pmoles lysosphingolipid/mg plasma membrane protein
CCCCCCCCCCCCC/C=C/[C@@H](O)[C@@H](N)CO [sphingosine] | 430 ± 70 | 85±15 pmoles lysosphingolipid/mg plasma membrane protein | 85±20 pmoles lysosphingolipid/mg plasma membrane protein | 110±15 pmoles lysosphingolipid/mg plasma membrane protein | 105±5 pmoles lysosphingolipid/mg plasma membrane protein | 115±15 pmoles lysosphingolipid/mg plasma membrane protein
